EC50 data for 31 compounds are collected here from patent US8871756B2 (Hoffmann-La Roche Inc., priority 2011, dated 2014).

Counter-ions that a name gives are not always drawn.

The assay deals with RSV Long strain. Description: Viral cytopathic effect (CPE) assay, anti-RSV activity. The format is cell-based, Respiratory Syncytial Virus. The following applies: human respiratory syncytial virus, 144 h, RSV Long strain (ATCC); cell viability after 6 days, Cell Counting kit-8. How it is done:
Viral cytopathic effect (CPE) assay: To measure anti-RSV activity of compounds, 96-well plates are seeded with 6×10^3 cells per well in Dulbecco's modified Eagle's medium (DMEM) containing 10% fetal bovine serum (FBS). Cells are infected the next day with sufficient RSV Long strain (ATCC) to produce an approximately 80-90% cytopathic effect after 6 days, in the presence of serial half-log diluted compound in a total volume of 200 μL per well. The viability of cells is assessed after 6 days using Cell Counting kit-8 (Dojindo Molecular Technologies). The absorbance at 450 nm and referenced at 630 nm is measured to determine 50% effective concentration (EC50).
The compounds of the present invention were tested for their anti-RSV activity, and the activation as described herein. The Examples were tested in the above assay and found to have EC50 of about 0.0001 μM to about 10 μM.
(Cytopathic effects are the visible damage that an infection or toxin causes in cultured cells.)
On to `Cc1ccc2nc(N3CCS(=O)(=O)c4ccccc4C3)cc(NCCO)c2c1` [Example 3-38, 2-{[2-(1,1-Dioxido-2,3-dihydro-1,4-benzothiazepin-4(5H)-yl)-6-methylquinolin-4-yl]amino}ethanol], for which the EC50 came out at 0.0439 µM.

Regarding `Cc1ccc2nc(N3CCS(=O)(=O)c4ccccc4C3)cc(N[C@@H]3CCOC3)c2c1` [Example 3-49, 2-(1,1-Dioxido-2,3-dihydro-1,4-benzothiazepin-4(5H)-yl)-6-methyl-N-[(3R)-tetrahydrofuran-3-yl]quinolin-4-amine], the EC50 amounted to 0.099 µM.

`Cc1ccc2nc(N3CCS(=O)(=O)c4ccccc4C3)cc(NC(=O)C3CCN3)c2c1` (stereo not shown) [Example 49, N-[2-(1,1-Dioxido-2,3-dihydro-1,4-benzothiazepin-4(5H)-yl)-6-methylquinolin-4-yl]azetidine-2-carboxamide]: the EC50 stood at 0.721 µM.

Take `Cc1ccc2nc(N3CCS(=O)(=O)c4ccccc4C3)cc(C)c2c1` [Example 99, 4-(4,6-Dimethylquinolin-2-yl)-2,3,4,5-tetrahydro-1,4-benzothiazepine 1,1-dioxide]: the EC50 was 3 µM.

For `N#Cc1ccc2nc(N3CCS(=O)(=O)c4ccccc4C3)cc(NCCCN)c2c1` [Example 52, 4-[(3-Aminopropyl)amino]-2-(1,1-dioxido-2,3-dihydro-1,4-benzothiazepin-4(5H)-yl)quinoline-6-carbonitrile], the midpoint of the response, the EC50, lay at 0.419 µM.

For `Cc1ccc2nc(N3CCS(=O)(=O)c4ccccc4C3)cc(NCC3(N)CCOC3)c2c1` (stereo not shown) [Example 2-1, N-[(3-Aminotetrahydrofuran-3-yl)methyl]-2-(1,1-dioxido-2,3-dihydro-1,4-benzothiazepin-4(5H)-yl)-6-methylquinolin-4-amine], the EC50 was 0.024 µM. Compared with the last compound, the EC50 is about 17-fold lower.

In the case of `NCC(F)(F)CNc1cc(N2CCS(=O)(=O)c3ccccc3C2)nc2ccc(Cl)cc12` [Example 3-20, N-[6-Chloro-2-(1,1-dioxido-2,3-dihydro-1,4-benzothiazepin-4(5H)-yl)quinolin-4-yl]-2,2-difluoropropane-1,3-diamine], the concentration for a half-maximal effect (EC50) came out at 0.507 µM.

The compound `NCCNc1cc(N2CC[S+]([O-])c3ccccc3C2)nc2ccc(Cl)cc12` (stereo not shown) [Example 18-7, N-[6-Chloro-2-(1-oxido-2,3-dihydro-1,4-benzothiazepin-4(5H)-yl)quinolin-4-yl]ethane-1,2-diamine] came in with an EC50 of 0.023 µM.

Compound `NCCNc1cc(N2CCSc3ccccc3C2)nc2ccc(Cl)cc12` [Example 4-2, N-[6-Chloro-2-(2,3-dihydro-1,4-benzothiazepin-4(5H)-yl)quinolin-4-yl]ethane-1,2-diamine] came in with an EC50 of 0.098 µM. This EC50 lies about 4.3-fold higher than the previous one.

As to `CCN(CCNc1cc(N2CCS(=O)(=O)c3ccccc3C2)nc2ccc(C)cc12)C1COC1` [Example 44-2, N′-[2-(1,1-Dioxido-2,3-dihydro-1,4-benzothiazepin-4(5H)-yl)-6-methylquinolin-4-yl]-N-ethyl-N-(oxetan-3-yl)ethane-1,2-diamine], the EC50 is 1.55 µM.

For the compound `CO[C@@H]1CNC[C@H]1Nc1cc(N2CCS(=O)(=O)c3ccccc3C2)nc2ccc(C)cc12` (relative stereo) [Example 8-4, 2-(1,1-Dioxido-2,3-dihydro-1,4-benzothiazepin-4(5H)-yl)-N-[trans-4-methoxypyrrolidin-3-yl]-6-methylquinolin-4-amine], the EC50 worked out at 0.064 µM.

In turn, `Cc1ccc2nc(N3CCS(=O)(=O)c4ccccc4C3)nc(N[C@@H]3CNC[C@H]3F)c2c1` (relative stereo) [Example 92-2, N-(trans-4-Fluoropyrrolidin-3-yl)-6-methyl-2-(1,1-dioxido-2,3-dihydro-1,4-benzothiazepin-4(5H)-yl)quinazolin-4-amine] showed an EC50 of 0.019 µM.

In the case of `NCCCNc1cc(N2CCS(=O)(=O)c3ccccc3C2)nc2ccc(C(F)F)cc12` [Example 9-29, N-[6-(Difluoromethyl)-2-(1,1-dioxido-2,3-dihydro-1,4-benzothiazepin-4(5H)-yl)quinolin-4-yl]propane-1,3-diamine], the midpoint of the response, the EC50, lay at 0.024 µM.

Turning to `Cc1ccc2nc(N3CCS(=O)(=O)c4ccccc4C3)cc(NCCN(C)C)c2c1` [Example 3-32, N′-[2-(1,1-Dioxido-2,3-dihydro-1,4-benzothiazepin-4(5H)-yl)-6-methylquinolin-4-yl]-N,N-dimethylethane-1,2-diamine], the EC50 worked out at 0.037 µM.

`Cc1ccc2nc(N3CCC(F)(F)c4ccccc4C3)cc(NCC(O)CO)c2c1` (stereo not shown) [Example 110-5, 3-{[2-(5,5-Difluoro-1,3,4,5-tetrahydro-2H-2-benzazepin-2-yl)-6-methylquinolin-4-yl]amino}propane-1,2-diol] yielded an EC50 of 1.66 µM. Against the preceding compound, the EC50 is about 45-fold higher.

For `Cc1cc2c(NCCO)cc(N3CCS(=O)(=O)c4ccccc4C3)nc2cc1F` [Example 9-23, 2-{[2-(1,1-Dioxido-2,3-dihydro-1,4-benzothiazepin-4(5H)-yl)-7-fluoro-6-methylquinolin-4-yl]amino}ethanol], the EC50 was found to be 3.02 µM.

Regarding `Cc1ccc2c(c1)S(=O)(=O)CCN(c1cc(NCC3(N)COC3)c3ccccc3n1)C2` [Example 2-4, N-[(3-Aminooxetan-3-yl)methyl]-2-(8-methyl-1,1-dioxido-2,3-dihydro-1,4-benzothiazepin-4(5H)-yl)-quinolin-4-amine], the EC50 is 0.081 µM.

`COc1cccc2c1S(=O)(=O)CCN(c1cc(NCC3(N)COC3)c3cc(C)ccc3n1)C2` [Example 65, N-[(3-Aminooxetan-3-yl)methyl]-2-(9-methoxy-1,1-dioxido-2,3-dihydro-1,4-benzothiazepin-4(5H)-yl)-6-methylquinolin-4-amine] returned an EC50 of 0.322 µM.

Compound `NC1(CNc2nc(N3CC[S+]([O-])c4ccccc4C3)nc3ccccc23)COC1` (stereo not shown) [Example 57-2, N-[(3-Aminooxetan-3-yl)methyl]-2-(1-oxido-2,3-dihydro-1,4-benzothiazepin-4(5H)-yl)quinazolin-4-amine] registered an EC50 of 0.018 µM. Against the preceding compound, the EC50 is about 18-fold lower.

As for `Cc1ccc2nc(N3CCSc4ccccc4C3)nc(NCC3(CN)COC3)c2c1` [Example 62-6, N-{[3-(Aminomethyl)oxetan-3-yl]methyl}-2-(2,3-dihydro-1,4-benzothiazepin-4(5H)-yl)-6-methylquinazolin-4-amine], the EC50 was determined as 0.006 µM.

On to `NC1(CNc2nc(N3CCSc4ccccc4C3)nc3ccc(Cl)cc23)COC1` [Example 57-4, N-[(3-Aminooxetan-3-yl)methyl]-6-chloro-2-(2,3-dihydro-1,4-benzothiazepin-4(5H)-yl)quinazolin-4-amine], for which the response was half-maximal at 0.239 µM (EC50).

The compound `Cc1ccc2nc(N3CC[S+]([O-])c4ccccc4C3)cc(N[C@@H]3CNC[C@H]3F)c2c1` (relative stereo) [Example 28-5, N-[trans-4-Fluoropyrrolidin-3-yl]-6-methyl-2-(1-oxido-2,3-dihydro-1,4-benzothiazepin-4(5H)-yl)quinolin-4-amine] yielded an EC50 of 0.003 µM.

In turn, `NCCNS(=O)(=O)c1cc(N2CCCc3ccccc3C2)nc2ccccc12` [Example 132, N-(2-Aminoethyl)-2-(1,3,4,5-tetrahydro-2H-2-benzazepin-2-yl)quinoline-4-sulfonamide trifluoroacetate] returned an EC50 of 7.81 µM. Compared with the last compound, the EC50 is about 2600-fold higher.

With `Cc1ccc2nc(N3CCS(=O)(=O)c4ccccc4C3)cc(NCCC(=O)O)c2c1` [Example 14-2, N-[2-(1,1-Dioxido-2,3-dihydro-1,4-benzothiazepin-4(5H)-yl)-6-methylquinolin-4-1]-beta-alanine], the EC50 was 8.79 µM.

Turning to `Cc1ccc2nc(N3CCS(=O)(=O)c4cc(Cl)ccc4C3)cc(NCC3(N)COC3)c2c1` [Example 1-6, N-[(3-Aminooxetan-3-yl)methyl]-2-(8-chloro-1,1-dioxido-2,3-dihydro-1,4-benzothiazepin-4(5H)-yl)-6-methylquinolin-4-amine], the EC50 turned out to be 0.022 µM.

In turn, `NCCCNc1cc(N2CCS(=O)(=O)c3ccccc3C2)nc2ccc(OCCO)cc12` [Example 30-1, 2-({4-[(3-Aminopropyl)amino]-2-(1,1-dioxido-2,3-dihydro-1,4-benzothiazepin-4(5 H)-yl)quinolin-6-yl}oxy)ethanol] returned an EC50 of 0.317 µM.

In turn, `NC1(CNc2cc(N3CCS(=O)(=O)c4ccccc4C3)nc3ccccc23)COC1` [Example 3-48, N-[(3-Aminooxetan-3-yl)methyl]-2-(1,1-dioxido-2,3-dihydro-1,4-benzothiazepin-4(5H)-yl)quinolin-4-amine] came in with an EC50 of 0.023 µM. This EC50 lies about 14-fold lower than the previous one.

As to `Cc1ccc2nc(N3CCS(=O)(=O)c4ccccc4C3)cc(NC(=O)c3ccccc3)c2c1` [Example 3-59, N-[2-(1,1-Dioxido-2,3-dihydro-1,4-benzothiazepin-4(5H)-yl)-6-methylquinolin-4-yl]benzamide], the EC50 amounted to 1.08 µM.

Compound `Cc1ccc2nc(N3CCS(=O)(=O)c4ccccc4C3)cc(NCC3CCCN3)c2c1` (stereo not shown) [Example 3-35, 2-(1,1-Dioxido-2,3-dihydro-1,4-benzothiazepin-4(5H)-yl)-6-methyl-N-(pyrrolidin-2-ylmethyl)quinolin-4-amine] gave an EC50 of 0.013 µM.

`Cc1ccc2nc(N3CCS(=O)(=O)c4ccccc4C3)nc(NCC(C)(C)N)c2c1` [Example 60, N^˜1^˜-[2-(1,1-Dioxido-2,3-dihydro-1,4-benzothiazepin-4(5H)-yl)-6-methylquinazolin-4-yl]-2-methylpropane-1,2-diamine] came in with an EC50 of 0.018 µM.

Regarding `Cc1ccc2nc(N3CCS(=O)(=O)c4ccccc4C3)cc(N3C[C@@H]4OC(N)=N[C@@H]4C3)c2c1` (relative stereo) [Example 38-5, cis-5-[2-(1,1-Dioxido-2,3-dihydro-1,4-benzothiazepin-4(5H)-yl)-6-methylquinolin-4-yl]-4,5,6,6a-tetrahydro-3aH-pyrrolo[3,4-d][1,3]oxazol-2-amine], the midpoint of the response, the EC50, lay at 6.65 µM.

Usually EC50 stands for the concentration at which the effect is half-maximal.
